In US20080199422A1, “Method for the Treatment of Myelodysplastic Syndromes Using 1-Oxo-2-(2,6-Dioxopiperidin-3-Yl-)-4-Methylisoindoline” (CELGENE CORPORATION, priority 2004, published 2008):
Where two headings read alike, the source gives them in different places.

Tests used:
TNF-α production [1] = settings: human PBMC, cited from earlier work; for IC50: LPS, read-out: IC50 for inhibiting production of TNF-α following LPS-stimulation of PBMC
AML cells = experiment: Mitogenic response to VEGF in AML cells; assay type: cell-based; settings: by extinguishing ligand-induced Akt-phosphorylation
Source text: (§1) The pharmacological effects of 3-(4amino-1-oxo-1,3-dihydro-isoindol-2-yl)-piperidine-2,6-dione derive from its action as an inhibitor of cellular response to receptor-initiated trophic signals (e.g., IGF-1, VEGF, cyclooxygenase-2), and other activities. As a result, 3-(4-amino-1-oxo-1,3-dihydro-isoindol-2-yl)-piperidine-2,6-dione suppresses the generation of inflammatory cytokines, down-regulates adhesion molecules and apoptosis inhibitory proteins (e.g., cFLIP, cIAP), promotes sensitivity to death-receptor initiated programmed cell death, and suppresses angiogenic response.

[2] = system: MDS bone marrow progenitor formation; experiment: MDS vs normal bone marrow progenitor formation in pre-clinical models; assay type: cell-based
Source text: as §1

MDS patients [3] = experiment: Clinical study in MDS patients with transfusion-dependence or symptomatic anemia; assay type: in vivo, human
Method: Clinical studies were performed for the remitting potential of 3-(4-amino-1-oxo-1,3-dihydro-isoindol-2-yl)-piperidine-2,6-dione in MDS patients with red blood cell transfusion-dependence (>4 units/8 weeks) or symptomatic anemia (Hgb<10 g/dl). Patients received continuous treatment with 3-(4-amino-1-oxo-1,3-dihydro-isoindol-2-yl)-piperidine-2,6-dione at a oral dose of 25 mg daily. Responses were assessed according to IWG criteria after 16 weeks of treatments. Among 15 patients receiving the treatments, 11 patients were evaluable for toxicity, nine patients were evaluable for response (>8 wks therapy), and three patients discontinued the therapy prematurely (<2 weeks) due to cholecystitis, autoimmune hemolytic anemia, or patient refusal. Median age of the patients was 78 years ranging from 51 to 82 years. FAB types of the MDS patients include RA [4 patients], RARS [4 patients], RABB [6 patients], and RAEB-T [1 patient] with corresponding IPSS categories of Low/Int-1 in 11 patients and Int-2/High in four patients. Myelosuppression, which was characterized by higher than grade 3 common toxicity criteria or 50% decrease in leukocyte and platelet counts [9 patients], and grade 3 fatigue [1 patient], necessitated dose reduction to 10 mg in the initial ten patients. All subsequent patients initiated oral administrations with 10 mg daily. Grade 1, 2 drug-related adverse effects were limited to the 25 mg dose and included pruritus or itchy scalp [6 patients] and myalgia [1 patient]. Six (66%) of nine evaluable patients experienced hematologic benefit (dual lineage, 1 patient), including 6/7 (86%) patients with IPSS Low/Int-1. Hematologic responses included RBC transfusion-independence [4 patients], decrease in RBC transfusions of more than 50% [1 patient], increase in Hgb of more than 1.5 g [1 patient], and one minor platelet response (increase of more than 30,000/μL ). Among five patients evaluable for cytogenetic response, three patients achieved either a complete or partial (decrease in abnormal metaphases of more than 50%) remission. […] Correlation with changes in apoptotic index, angiogenic features (cellular/plasma VEGF, micro vessel density), cytokine generation, and proliferative fraction (Ki67) are in progress. […] Clinical benefit appears greatest in patients with low/intermediate-1 disease or the 5q-syndrome, associated with resolution of cytology dysplasia.

MDS patients [4] = experiment: Expanded clinical study, additional 16 MDS patients; assay type: in vivo, human
Source text: The clinical study was expanded with additional 16 MDS patients for at least eight weeks. According to the IPSS, 13 of these patients were categorized as low- or intermediate-1-risk patients and three patients were grouped as intermediate-2- or high-risk patients. According to the FAB classification, there were 11 patients with refractory anemia (RA) or RA with ringed sideroblasts (RARS), and five patients with RA with excess blasts (RAEB), RAEB in transformation (RAEB-T). The starting dose of 3-(4-amino-1-oxo-1,3-dihydro-isoindol-2-yl)-piperidine-2,6-dione was 25 mg daily for the first 13 patients and 10 mg daily for the remaining three patients. All patients receiving the starting dose of 25 mg required dose reduction by the completion of eight weeks therapy. Among these 16 patients who completed at least 8 weeks of monitoring, nine patients achieved an erythroid response as assessed by the International MDS Working Group Criteria. The erythroid responses consisted of transfusion independence in seven previously transfusion-dependent patients, a >2 g/dL rise in blood hemoglobin concentration in one patient in with transfusion-independent anemia, and a >50% decrease in RBC transfusion requirement in one transfusion-dependent patient. […] In addition, complete cytogenetic responses developed in five in eight patients with abnormal karyotypes at baseline. These five patients with complete cytogenetic responses all had the Del5q3 1-33 abnormality, which has been discovered to be a good prognostic factor for MDS. Indeed, all five patients who enrolled in this study with 5q-syndrome achieved a complete cytogenetic response and a major erythroid response. The study also indicated an association of this therapy with an increased apoptotic index for myelodysplastic progenitors and recovery of normal hematopoietic progenitor cells.

TNF-α production [5] = settings: cited from earlier work
MDS patients [6] = settings: cited from earlier work
[7] = 25 mg daily, initial ten patients, necessitated dose reduction to 10 mg

Molecule: O=C1CCC(N2C(=O)c3ccccc3C2=O)C(=O)N1 (racemic) [Thalidomide, 2-(2,6-dioxo-3-piperidinyl)-1H-isoindole-1,3(2H)-dione, reference compound]
- IC50 (TNF-α production [1]): ~194000 nM
- IC50 for inhibiting production of TNF-α following LPS-stimulation of PBMC (TNF-α production [1]): ~50.2 µg/mL

Molecule: Nc1cccc2c1CN(C1CCC(=O)NC1=O)C2=O (stereo not drawn) [3-(4-amino-1-oxo-1,3-dihydro-isoindol-2-yl)-piperidine-2,6-dione]
- mitogenic response to VEGF (AML cells): abrogates mitogenic response to VEGF
- MDS vs normal bone marrow progenitor formation [2]: selectively suppresses
- tolerability (MDS patients [3]; 10 mg continuous oral daily dose): well-tolerated with minimal myelosuppression
- grade 3 fatigue (MDS patients [3]; [7]): 1 patient
- myelosuppression (higher than grade 3 common toxicity criteria or 50% decrease in leukocyte and platelet counts) (MDS patients [3]; [7]): 9 patients
- Grade 1, 2 drug-related myalgia (MDS patients [3]; 25 mg dose): 1 patient
- Grade 1, 2 drug-related pruritus or itchy scalp (MDS patients [3]; 25 mg dose): 6 patients
- patients with hematologic benefit, IPSS Low/Int-1 (MDS patients [3]; 6/7 patients with IPSS Low/Int-1): 86%
- complete or partial cytogenetic remission (decrease in abnormal metaphases of more than 50%) (MDS patients [3]; among five patients evaluable for cytogenetic response): three
- RBC transfusion-independence (MDS patients [3]; of nine evaluable patients): 4 patients
- decrease in RBC transfusions of more than 50% (MDS patients [3]; of nine evaluable patients): 1 patient
- increase in Hgb of more than 1.5 g (MDS patients [3]; of nine evaluable patients): 1 patient
- minor platelet response (increase of more than 30,000/μL) (MDS patients [3]; of nine evaluable patients): one
- erythropoietic and cytogenetic remitting activity (MDS patients [3]; patients with low/intermediate-1 risk MDS): remarkable erythropoietic and cytogenetic remitting activity
- normalization of blast percentage (MDS patients [3]; responders): 1 patient
- patients with hematologic benefit (MDS patients [3]; six of nine evaluable patients, oral 25 mg daily, reduced to 10 mg, IWG criteria): 66%
- erythroid response (International MDS Working Group Criteria) (MDS patients [4]; among 16 patients, at least 8 weeks, start 25 mg or 10 mg daily): nine
- complete cytogenetic responses (MDS patients [4]; in eight patients with abnormal karyotypes at baseline): five
- major erythroid response (MDS patients [4]; of 16 patients): eight
- minor erythroid response (MDS patients [4]; of 16 patients): one
- minor platelet response (MDS patients [4]; of 16 patients): One
- complete cytogenetic response and major erythroid response in 5q-syndrome (MDS patients [4]; patients enrolled with 5q-syndrome): all five
- transfusion independence (MDS patients [4]; previously transfusion-dependent patients): seven
- patients requiring dose reduction by completion of eight weeks therapy (MDS patients [4]; starting dose of 25 mg (first 13 patients)): All patients
- >50% decrease in RBC transfusion requirement (MDS patients [4]; transfusion-dependent patient): one
- >2 g/dL rise in blood hemoglobin concentration (MDS patients [4]; transfusion-independent anemia): one
- IC50 (TNF-α production [1]): ~100 nM
- IC50 for inhibiting production of TNF-α following LPS-stimulation of PBMC (TNF-α production [1]): ~0.0259 µg/mL
- IC50 for inhibiting production of TNF-α following LPS-stimulation of human whole blood (TNF-α production [5]): ~0.1036 µg/mL
- IC50 (TNF-α production [5]; human whole blood, LPS, read-out: IC50 for inhibiting production of TNF-α following LPS-stimulation of human whole blood): ~480 nM

Molecule: recombinant human EPO: recombinant human erythropoietin (EPO), hematopoietic growth factor
- patients with sustained improvement in hemoglobin or decrease in transfusion requirement (MDS patients [6]): less than 25%
